Measurements reported in PubChem BioAssay AID248 (DTP/NCI, 2004).
Values joined by “and” are separate entries in the source; they are usually repeats but may differ in a detail not shown here. Equal entries are not always repeated. Toxic doses and inconclusive results are not listed.

Tested on: L1210 leukemia ip in BDF1 mice, survival T/C
Assay: NCI In Vivo Anticancer Drug Screen. Data for tumor model L1210 Leukemia (intraperitoneal) in B6D2F1 (BDF1) mice
Details: higher = longer survival
Method in brief: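 Value reflects the ratio of survival in compound-treated mice to survival in vehicle-treated controls, with both groups carrying the same transplanted tumor.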

[1] = endpoint: mean survival time, dose: 50.0 mg/kg/injection, schedule: Q01DX009 (ip), vehicle: saline with Tween-80
[2] = endpoint: mean survival time, dose: 100.0 mg/kg/injection, schedule: Q01DX009 (ip), vehicle: saline with Tween-80

For N[C@H](C(=O)O)[C@H]1ON=C(Cl)[C@@H]1O, the T/C (endpoint: mean survival time, dose: 0.78 mg/kg/injection, schedule: Q01DX009 (ip), vehicle: saline) was 108 % of control, the T/C (endpoint: mean survival time, dose: 5.5 mg/kg/injection, schedule: Q01DX009 (ip), vehicle: Klucel (hydroxypropylcellulose) (HPC)) was 108 % of control and the T/C (endpoint: mean survival time, dose: 25.0 mg/kg/injection, schedule: Q01DX009 (ip), vehicle: Klucel (hydroxypropylcellulose) (HPC)) was 118 % of control. For the same compound, the T/C (endpoint: mean survival time, dose: 50.0 mg/kg/injection, schedule: Q01DX009 (ip), vehicle: Klucel (hydroxypropylcellulose) (HPC)) was 150 % of control, the T/C (endpoint: mean survival time, dose: 66.0 mg/kg/injection, schedule: Q01DX009 (ip), vehicle: Klucel (hydroxypropylcellulose) (HPC)) was 151 % of control and the T/C (endpoint: mean survival time, dose: 100.0 mg/kg/injection, schedule: Q01DX009 (ip), vehicle: Klucel (hydroxypropylcellulose) (HPC)) was 154 % of control and 158 % of control. For the same compound, the T/C (endpoint: mean survival time, dose: 150.0 mg/kg/injection, schedule: Q01DX009 (ip), vehicle: Klucel (hydroxypropylcellulose) (HPC)) was 104 % of control, the T/C (endpoint: median survival time, dose: 4.0 mg/kg/injection, schedule: Q03HX008 (ip), vehicle: saline) was 123 % of control and the T/C (endpoint: median survival time, dose: 4.0 mg/kg/injection, schedule: Q03HX024 (ip), vehicle: saline) was 154 % of control. For the same compound, the T/C (endpoint: median survival time, dose: 6.25 mg/kg/injection, schedule: Q03HX016 (ip), vehicle: saline) was 154 % of control, the T/C (endpoint: median survival time, dose: 6.25 mg/kg/injection, schedule: Q03HX024 (ip), vehicle: saline) was 189 % of control and the T/C (endpoint: median survival time, dose: 8.0 mg/kg/injection, schedule: Q01DX009 (sc), vehicle: saline) was 118 % of control. For the same compound, the T/C (endpoint: median survival time, dose: 8.0 mg/kg/injection, schedule: Q03HX016 (ip), vehicle: saline) was 153 % of control, the T/C (endpoint: median survival time, dose: 12.5 mg/kg/injection, schedule: Q03HX016 (ip), vehicle: saline) was 152 % of control and the T/C (endpoint: median survival time, dose: 12.5 mg/kg/injection, schedule: Q03HX024 (ip), vehicle: saline) was 170 % of control. The T/C (endpoint: median survival time, dose: 16.0 mg/kg/injection, schedule: Q03HX016 (ip), vehicle: saline) was 150 % of control, the T/C (endpoint: median survival time, dose: 25.0 mg/kg/injection, schedule: Q01DX001 (ip), vehicle: saline) was 113 % of control and the T/C (endpoint: median survival time, dose: 25.0 mg/kg/injection, schedule: Q01DX009 (ip), vehicle: saline) was 171 % of control. The T/C (endpoint: median survival time, dose: 25.0 mg/kg/injection, schedule: Q03HX016 (ip), vehicle: saline) was 160 % of control, the T/C (endpoint: median survival time, dose: 25.0 mg/kg/injection, schedule: Q08DX002 (ip), vehicle: saline) was 104 % of control and the T/C (endpoint: median survival time, dose: 32.0 mg/kg/injection, schedule: Q01DX001 (ip), vehicle: saline) was 105 % of control. For the same compound, the T/C (endpoint: median survival time, dose: 32.0 mg/kg/injection, schedule: Q01DX001 (sc), vehicle: saline) was 105 % of control, the T/C (endpoint: median survival time, dose: 32.0 mg/kg/injection, schedule: Q03HX016 (ip), vehicle: saline) was 150 % of control and the T/C (endpoint: median survival time, dose: 32.0 mg/kg/injection, schedule: Q03HX024 (ip), vehicle: saline) was 153 % of control. The T/C (endpoint: median survival time, dose: 32.0 mg/kg/injection, schedule: Q04DX003 (ip), vehicle: saline) was 122 % of control, the T/C (endpoint: median survival time, dose: 32.0 mg/kg/injection, schedule: Q08DX002 (ip), vehicle: saline) was 111 % of control and the T/C (endpoint: median survival time, dose: 50.0 mg/kg/injection, schedule: Q01DX001 (ip), vehicle: saline) was 113 % of control. For the same compound, the T/C (endpoint: median survival time, dose: 50.0 mg/kg/injection, schedule: Q03HX016 (ip), vehicle: saline) was 158 % of control, the T/C (endpoint: median survival time, dose: 50.0 mg/kg/injection, schedule: Q08DX002 (ip), vehicle: saline) was 108 % of control and the T/C (endpoint: median survival time, dose: 64.0 mg/kg/injection, schedule: Q01DX001 (ip), vehicle: saline) was 100 % of control. For the same compound, the T/C (endpoint: median survival time, dose: 64.0 mg/kg/injection, schedule: Q01DX001 (sc), vehicle: saline) was 106 % of control, the T/C (endpoint: median survival time, dose: 64.0 mg/kg/injection, schedule: Q01DX009 (oral), vehicle: saline) was 115 % of control and the T/C (endpoint: median survival time, dose: 64.0 mg/kg/injection, schedule: Q01DX009 (sc), vehicle: saline) was 151 % of control. The T/C (endpoint: median survival time, dose: 64.0 mg/kg/injection, schedule: Q03HX024 (ip), vehicle: saline) was 153 % of control, the T/C (endpoint: median survival time, dose: 64.0 mg/kg/injection, schedule: Q04DX003 (ip), vehicle: saline) was 122 % of control and the T/C (endpoint: median survival time, dose: 64.0 mg/kg/injection, schedule: Q08DX002 (ip), vehicle: saline) was 113 % of control. The T/C (endpoint: median survival time, dose: 100.0 mg/kg/injection, schedule: Q01DX001 (ip), vehicle: saline) was 104 % of control, the T/C (endpoint: median survival time, dose: 100.0 mg/kg/injection, schedule: Q01DX009 (ip), vehicle: saline) was 169 % of control and the T/C (endpoint: median survival time, dose: 100.0 mg/kg/injection, schedule: Q03HX016 (ip), vehicle: saline) was 152 % of control. The T/C (endpoint: median survival time, dose: 100.0 mg/kg/injection, schedule: Q03HX024 (ip), vehicle: saline) was 202 % of control, the T/C (endpoint: median survival time, dose: 100.0 mg/kg/injection, schedule: Q04DX003 (ip), vehicle: saline) was 122 % of control and the T/C (endpoint: median survival time, dose: 100.0 mg/kg/injection, schedule: Q08DX002 (ip), vehicle: saline) was 114 % of control. The T/C (endpoint: median survival time, dose: 128.0 mg/kg/injection, schedule: Q01DX001 (ip), vehicle: saline) was 108 % of control, the T/C (endpoint: median survival time, dose: 128.0 mg/kg/injection, schedule: Q01DX001 (sc), vehicle: saline) was 104 % of control and the T/C (endpoint: median survival time, dose: 128.0 mg/kg/injection, schedule: Q01DX009 (ip), vehicle: saline) was 151 % of control. The T/C (endpoint: median survival time, dose: 128.0 mg/kg/injection, schedule: Q01DX009 (sc), vehicle: saline) was 163 % of control, the T/C (endpoint: median survival time, dose: 128.0 mg/kg/injection, schedule: Q03HX024 (ip), vehicle: saline) was 152 % of control and the T/C (endpoint: median survival time, dose: 128.0 mg/kg/injection, schedule: Q04DX003 (ip), vehicle: saline) was 108 % of control. For the same compound, the T/C (endpoint: median survival time, dose: 128.0 mg/kg/injection, schedule: Q08DX002 (ip), vehicle: saline) was 102 % of control, the T/C (endpoint: median survival time, dose: 200.0 mg/kg/injection, schedule: Q01DX001 (ip), vehicle: saline) was 108 % of control and the T/C (endpoint: median survival time, dose: 200.0 mg/kg/injection, schedule: Q01DX009 (ip), vehicle: saline) was 104 % of control. For the same compound, the T/C (endpoint: median survival time, dose: 200.0 mg/kg/injection, schedule: Q08DX002 (ip), vehicle: saline) was 104 % of control, the T/C (endpoint: median survival time, dose: 256.0 mg/kg/injection, schedule: Q01DX001 (ip), vehicle: saline) was 104 % of control and the T/C (endpoint: median survival time, dose: 256.0 mg/kg/injection, schedule: Q01DX001 (oral), vehicle: saline) was 108 % of control and 109 % of control. The T/C (endpoint: median survival time, dose: 256.0 mg/kg/injection, schedule: Q01DX001 (sc), vehicle: saline) was 104 % of control, the T/C (endpoint: median survival time, dose: 256.0 mg/kg/injection, schedule: Q01DX009 (ip), vehicle: saline) was 153 % of control and the T/C (endpoint: median survival time, dose: 256.0 mg/kg/injection, schedule: Q01DX009 (oral), vehicle: saline) was 115 % of control and 90 % of control. The T/C (endpoint: median survival time, dose: 256.0 mg/kg/injection, schedule: Q08DX002 (ip), vehicle: saline) was 99 % of control, the T/C (endpoint: median survival time, dose: 400.0 mg/kg/injection, schedule: Q01DX001 (ip), vehicle: saline) was 117 % of control and the T/C (endpoint: median survival time, dose: 400.0 mg/kg/injection, schedule: Q08DX002 (ip), vehicle: saline) was 122 % of control. The T/C (endpoint: median survival time, dose: 512.0 mg/kg/injection, schedule: Q01DX001 (ip), vehicle: saline) was 105 % of control, the T/C (endpoint: median survival time, dose: 512.0 mg/kg/injection, schedule: Q01DX001 (oral), vehicle: saline) was 115 % of control and 118 % of control and the T/C (endpoint: median survival time, dose: 512.0 mg/kg/injection, schedule: Q01DX001 (sc), vehicle: saline) was 107 % of control. For the same compound, the T/C (endpoint: median survival time, dose: 512.0 mg/kg/injection, schedule: Q01DX009 (oral), vehicle: saline) was 87 % of control, the T/C (endpoint: median survival time, dose: 512.0 mg/kg/injection, schedule: Q08DX002 (ip), vehicle: saline) was 102 % of control and the T/C (endpoint: median survival time, dose: 1024.0 mg/kg/injection, schedule: Q01DX001 (ip), vehicle: saline) was 114 % of control. For the same compound, the T/C (endpoint: median survival time, dose: 1024.0 mg/kg/injection, schedule: Q01DX001 (oral), vehicle: saline) was 114 % of control, the T/C (endpoint: median survival time, dose: 1024.0 mg/kg/injection, schedule: Q01DX001 (sc), vehicle: saline) was 109 % of control and the T/C (endpoint: median survival time, dose: 1024.0 mg/kg/injection, schedule: Q08DX002 (ip), vehicle: saline) was 118 % of control.

With CCOCC(=O)CC1=CCCCC1 the T/C [1] was 94 % of control, the T/C [2] was 102 % of control and the T/C (endpoint: mean survival time, dose: 200.0 mg/kg/injection, schedule: Q01DX009 (ip), vehicle: saline with Tween-80) was 94 % of control.

With Nc1nc2ncc(CNc3ccc(C(=O)NC(CCC(=O)O)C(=O)O)cc3F)nc2c(=O)[nH]1 (configuration not stated) the T/C (endpoint: mean survival time, dose: 50.0 mg/kg/injection, schedule: Q01DX001 (ip), vehicle: saline) was 109 % of control and the T/C (endpoint: mean survival time, dose: 100.0 mg/kg/injection, schedule: Q01DX001 (ip), vehicle: saline) was 105 % of control.

For O=[N+]([O-])CC(O)c1ccccc1Cl (configuration not stated), the T/C [1] was 95 % of control and the T/C [2] was 98 % of control.

With CCCCCCCCN(CCCCCCCC)CC(=O)c1ccc2cc(Br)c3ccccc3c2c1 the T/C (endpoint: mean survival time, dose: 100.0 mg/kg/injection, schedule: Q01DX001 (ip), vehicle: alcohol) was 101 % of control, the T/C (endpoint: mean survival time, dose: 200.0 mg/kg/injection, schedule: Q01DX001 (ip), vehicle: alcohol) was 100 % of control and the T/C (endpoint: mean survival time, dose: 400.0 mg/kg/injection, schedule: Q01DX001 (ip), vehicle: alcohol) was 103 % of control.

For COc1cc2c(cc1OC(C)=O)C(=O)CCCC2, the T/C (endpoint: mean survival time, dose: 100.0 mg/kg/injection, schedule: Q04DX003 (ip), vehicle: Klucel (hydroxypropylcellulose) (HPC)) was 91 % of control, the T/C (endpoint: mean survival time, dose: 200.0 mg/kg/injection, schedule: Q04DX003 (ip), vehicle: Klucel (hydroxypropylcellulose) (HPC)) was 97 % of control and the T/C (endpoint: mean survival time, dose: 400.0 mg/kg/injection, schedule: Q04DX003 (ip), vehicle: Klucel (hydroxypropylcellulose) (HPC)) was 96 % of control.
